From patent US20210213010A1, “TLR7/8 AGONISTS AND LIPOSOME COMPOSITIONS” (Torque Therapeutics, Inc., priority 2018, published 2021)

Tests used:
[1] = Cytokine/chemokine release kinetics in blood of non-tumor bearing B6D2F1/J mice (Luminex); assay type: in vivo, mouse; conditions: single dose; 4 mg/kg Gdq or 2 mg/kg KRJ2-110 systemic, or loaded PMEL cells; 0-24 hr
Protocol: Spleens and lymphnodes were harvested from PMEL mice (B6. Cg-Thy1^a/Cy Tg(TcraTcrb)8Rest/J, Jackson Labs) and CD8 T cells purified by Mylteni MACS T cell separation kit. PMEL cells were stimulated and expanded on anti-CD3/CD28 coated plates with mouse IL2/IL7/IL21 cytokines and harvested for use. The cytokine/chemokine release profile in non-tumor bearing B6D2F1/J mice (Jackson Labs) was evaluated by injecting: • 20×10^6 PMEL cells alone, 20×10^6 PMEL cells loaded with 2.5 ant-CD45 Ab/liposome, 10% DOTAP, 35% cholesterol, 0.6% DSPE-PEG, POPC liposomes Gardiquimod pH gradient loaded as previously described (˜200 nmol gardiquimod, single dose) • 4 mg/kg Gdq systemic (no PMEL, single dose) • 2 mg/kg KRJ2-110 systemic (no PMEL, single dose)
Blood was drawn at 0, 0.25, 0.5, 1, 2, 4, 6, 10 and 24 hr and plasma was recovered for cytokine/chemokine quantitation using a Luminex kit. […] IP10 and TNFa are commonly used biomarkers for TLR7 agonists in human studies indicating these may be useful biomarkers in clinical studies for T cells loaded with TLR7 agonists.

[2] = Cryo-TEM of remote loaded liposomes (intraliposomal precipitation); assay type: physicochemical; conditions: remote loaded liposomes, Example 75
Protocol: CryoTEM samples of 3 μL of liposome solution was placed on a lacy carbon 300 mesh copper TEM grid, blotted and plunge frozen in liquid ethane using a FEI Vitrobot Mark IV. Samples were imaged using a FEI Tecnai G2 20 TWIN transmission electron microscope operated at 200 keV in low dose mode with a FEI High-Sensitive (HS) 4 k×4 k Eagle camera.

B16-F10 tumor [3] = assay: B16-F10 tumor model with adoptive cell transfer of PMEL cells (Example 80); assay type: in vivo, mouse
Protocol: Spleens and lymphnodes were harvested from PMEL mice (B6. Cg-Thy1^a/Cy Tg(TcraTcrb)8Rest/J, Jackson Labs) and CD8 T cells purified by Mylteni MACS T cell separation kit. PMEL cells were stimulated and expanded on anti-CD3/CD28 coated plates with mouse IL2/IL7/IL21 cytokines, harvested and loaded with liposomes for evaluation in vivo. PMEL cells at 50×10^6/mL were incubated with liposomes at 10 mM lipid concentration for 60 minutes at 37 C, washed twice and formulated in HBSS prior to injection into the mice. In vivo study details show below. Briefly, 100 ul of 0.5×10^6 B16-F10 cells formulated in HBSS were injected SubQ (SQ) or intra-dermal (ID) and grown for 9 days prior to treatment. 1 day prior to treatment, 4 mg/mouse of cyclophosphamide (CPX) was injected intraperitoneal (IP) with 200 ul at 20 mg/mL in phosphate buffered saline (PBS). There were 10 mice used per group and all treatments were injected intravenous (IV) via tail vein injection, the groups were as follows: • HBSS alone (single dose) • 20×10^6 PMEL cells/mouse (single dose) • 20×10^6 PMEL cells/mouse backpacked with 2.5 antiCD45 Ab/liposome, 10% DOTAP, 35% cholersterol, 0.6% DSPE-PEG, POPC, pH gradient loaded as previously described with Gardiquimod (˜200 nmol Gardiquimod/mouse, single dose) • 20×10^6 PMEL cells/mouse followed by 4 mg/kg Gardiquimod systemically on day 0 (treatment day, day 6, day 13, day 25 • 20×10^6 PMEL cells/mouse followed by 2 mg/kg KRJ2-110 systemically on day 0 (treatment day), day 6, day 13, day 25

B16-F10 tumor [4] = assay: In vivo immune profiling by flow cytometry in B16-F10 tumor bearing mice (Example 87); set-up: species or system mouse
Protocol: Spleens and lymphnodes were harvested from PMEL mice (B6. Cg-Thy1^a/Cy Tg(TcraTcrb)8Rest/J, Jackson Labs) and CD8 T cells purified by Mylteni MACS T cell separation kit. PMEL cells were stimulated and expanded on anti-CD3/CD28 coated plates with mouse IL2/IL7/IL21 cytokines, harvested and loaded with liposomes for evaluation in vivo. PMEL cells at 50×10^6/mL were incubated with liposomes at 10 mM lipid concentration for 60 minutes at 37 C, washed twice and formulated in HBSS prior to injection into the mice. Briefly, 100 ul of 1×10^6 B16-F10 cells formulated in HBSS were injected SubQ (SQ) and grown for 10 days prior to treatment. 1 day prior to treatment, 4 mg/mouse of cyclophosphamide (CPX) was injected intraperitoneal (IP) with 200 ul at 20 mg/mL in phosphate buffered saline (PBS). There were 10 mice used per group and all treatments were injected intravenous (IV) via tail vein injection, the groups were as follows: • HBSS alone (single dose) • 20×10^6 PMEL cells/mouse (single dose) • 20×10^6 PMEL cells/mouse backpacked with 1.5% Arg3-Chol, 10% DSTAP, 35% cholesterol, 0.5% DSPE-PEG, DSPC, pH gradient loaded as previously described with KRJ2-110 (single dose) • 20×10^6 PMEL cells/mouse followed by 2 mg/kg KRJ2-110 systemically on day 0 (small molecule delivered 1 hr after cell dose)
Blood was sampled at 24 hr, 4 days and 7 days for plasma isolation and cytokine/chemokine characterization by Luminex. Tissues and organs were harvested on day 4 and 7 for analysis by flow cytometry and Luminex.

RAW Blue cells = assay: Potency of TLR7 agonist compound library in RAW Blue TLR reporter cells; assay type: cell-based; conditions: fold more potent
Protocol: A general synthesis scheme is shown in FIG. 1A according to the procedure by Wu et al. Immunotherapeutic activity of a conjugate of a Toll-like receptor 7 ligand. Proc. Natl. Acad. Sci. 104, 3990-3995 (2007), with some modifications and in good yields. Final derivatization using standard amide bond formation or reductive amination conditions, gave the desired library of 22 compounds divided into two sets (set 1, 1a-1j and set 2, 2a-2j). Next it was evaluated if the synthesized compounds had retained their activity upon derivatization. As benchmarks, the known TLR agonists Gardiquimod (Gdq, TLR7) and Resiquimod (R848, TLR7/8) were used.

For `COCCOc1nc(N)c2nc(O)n(Cc3ccc(CN)cc3)c2n1` [KRJ2-110, 6-amino-9-(4-(aminomethyl)benzyl)-2-(2-methoxyethoxy)-9H-purin-8-ol], the “Proinflammatory cytokines such as IFNg, IL12 in blood” value [1] was “significant increase in proinflammatory cytokines”, the “Crystallization within liposomes (Cryo-TEM)” value [2] was “crystallizes inside the liposomes” and the “B16-F10 tumor growth after adoptive cell transfer” value (B16-F10 tumor [3]; PMEL cells plus 2 mg/kg KRJ2-110 or 4 mg/kg Gardiquimod systemically, or liposome loaded PMEL) was “more efficacious”. For the same molecule, the “Weight of tumor bearing mice” value (B16-F10 tumor [3]; versus HBSS, PMEL alone and PMEL loaded with Gdq liposomes) was “more substantial weight loss”, the “Activation of PMEL T cells in LN” value (B16-F10 tumor [4]; 4 and 7 days after ACT) was “Increases activation of PMEL T cells in LN” and the “Exhaustion of PMEL cells (PD1+/LAG3+)” value (B16-F10 tumor [4]; 4 and 7 days after ACT) was “Slightly increases exhaustion”. The “MHCII expression in the tumor” value (B16-F10 tumor [4]; 4 and 7 days after ACT) was “Increases MHCII expression in the tumor”, the “Monocytic and Granulocytic MDSC density in the tumor” value (B16-F10 tumor [4]; 7 days after ACT) was “Does not markedly affect MDSC” and the “Abundance of cDC1 and pDC in the tumor” value (B16-F10 tumor [4]; after ACT) was “Transiently increases the abundance of cDC1 and pDC”. For the same molecule, the “Proliferation of PMEL T cells (Ki67)” value (B16-F10 tumor [4]; blood, spleen and tumor, 4 days after ACT) was “Virtually no effect on PMEL T cell proliferation” and the “In vitro potency in a RAW cell assay relative to Gardiquimod” value (RAW Blue cells) was roughly 10 ×.
